pIC50: −log10 of the molar value.
Columns and labels:
[1] = target: T1, phosphorylated ERBB2 (pERBB2) (Homo sapiens, UniProt P04626); experiment: Detection of phosphorylated ERBB2 (pERBB2) by ELISA in BT-474 cells; type: cell-based; conditions: four hours incubation
T1 construct: endogenous in cells; host or cells: BT-474
Experimental: BT-474 cells were seeded into a 96-well at 2.0*10^4 cells/100 μl/well.
Compounds were dissolved and serially diluted in DMSO. The compounds were then were added, mixed, and incubated for four hours at 37° C., 5% CO2. Compounds were added using four-fold dilutions at final concentrations ranging from 10 μM to 0.01 nM.
Following the four hour incubation with compounds, cell lysates were prepared.
Plates were centrifuged for 5 min at 3000 RPM, and supernatant was removed from each well. Cells were washed 3 times by resuspension in 150 μl PBS, followed by centrifugation and removal of the supernatant, as above. […] Cells were incubated with lysis buffer for 1 hour at 4° C., and then stored at −80° C.
Enzyme-linked immunosorbent assays (ELISA) were performed to measure phosphorylated ERBB2 levels. […] The next day, plates were washed with PBS+0.05% Tween20 (PBST). 150 μl of 5% BSA blocking solution was added for 1 hour at room temperature, with shaking. Plates were washed with PBST. Cell lysates were thawed and 100 μl of lysate was added to the ELISA plate. The plates were incubated for 2 hours at room temperature, with shaking. […] Plates were incubated for 1 hour at room temperature, with shaking. Plates were then washed with PBST, and 100 μl TMB substrate solution (R&D Systems, cat #DY999) was added. Plate were incubated in the dark for 20 minutes at room temperature. 50 μl of Stop solution (R&D Systems, cat #DY994) (50 μl) was added to each well and mixed.
Optical density at 450 nm was read on an EnSpire plate reader (Perkin Elmer). The remaining kinase activity by calculated using the following formula: % Relative activity=100×(A450sample−A450LC)/(A450HC−A450LC). The low and high control values (“LC” and “HC”) were generated from lysate from wells without cells or with cells treated with 0.1% DMSO, respectively.

[2] = target: Ba/F3 ERBB2 A775_G776insYVMA (Homo sapiens, UniProt P04626, DUP772-775, cells depend on it); experiment: Cell viability assay, Ba/F3 ERBB2 A775_G776insYVMA; type: cell-based, mouse; conditions: Ba/F3 ERBB2 YVMA cells, cell viability, 72 hours, CellTiter Glo; Table B5; read-out: Ba/F3 ERBB2 YVMA, IC50
Sequence of Ba/F3 ERBB2 A775_G776insYVMA (P04626 with tags, fused parts or gaps DUP772-775): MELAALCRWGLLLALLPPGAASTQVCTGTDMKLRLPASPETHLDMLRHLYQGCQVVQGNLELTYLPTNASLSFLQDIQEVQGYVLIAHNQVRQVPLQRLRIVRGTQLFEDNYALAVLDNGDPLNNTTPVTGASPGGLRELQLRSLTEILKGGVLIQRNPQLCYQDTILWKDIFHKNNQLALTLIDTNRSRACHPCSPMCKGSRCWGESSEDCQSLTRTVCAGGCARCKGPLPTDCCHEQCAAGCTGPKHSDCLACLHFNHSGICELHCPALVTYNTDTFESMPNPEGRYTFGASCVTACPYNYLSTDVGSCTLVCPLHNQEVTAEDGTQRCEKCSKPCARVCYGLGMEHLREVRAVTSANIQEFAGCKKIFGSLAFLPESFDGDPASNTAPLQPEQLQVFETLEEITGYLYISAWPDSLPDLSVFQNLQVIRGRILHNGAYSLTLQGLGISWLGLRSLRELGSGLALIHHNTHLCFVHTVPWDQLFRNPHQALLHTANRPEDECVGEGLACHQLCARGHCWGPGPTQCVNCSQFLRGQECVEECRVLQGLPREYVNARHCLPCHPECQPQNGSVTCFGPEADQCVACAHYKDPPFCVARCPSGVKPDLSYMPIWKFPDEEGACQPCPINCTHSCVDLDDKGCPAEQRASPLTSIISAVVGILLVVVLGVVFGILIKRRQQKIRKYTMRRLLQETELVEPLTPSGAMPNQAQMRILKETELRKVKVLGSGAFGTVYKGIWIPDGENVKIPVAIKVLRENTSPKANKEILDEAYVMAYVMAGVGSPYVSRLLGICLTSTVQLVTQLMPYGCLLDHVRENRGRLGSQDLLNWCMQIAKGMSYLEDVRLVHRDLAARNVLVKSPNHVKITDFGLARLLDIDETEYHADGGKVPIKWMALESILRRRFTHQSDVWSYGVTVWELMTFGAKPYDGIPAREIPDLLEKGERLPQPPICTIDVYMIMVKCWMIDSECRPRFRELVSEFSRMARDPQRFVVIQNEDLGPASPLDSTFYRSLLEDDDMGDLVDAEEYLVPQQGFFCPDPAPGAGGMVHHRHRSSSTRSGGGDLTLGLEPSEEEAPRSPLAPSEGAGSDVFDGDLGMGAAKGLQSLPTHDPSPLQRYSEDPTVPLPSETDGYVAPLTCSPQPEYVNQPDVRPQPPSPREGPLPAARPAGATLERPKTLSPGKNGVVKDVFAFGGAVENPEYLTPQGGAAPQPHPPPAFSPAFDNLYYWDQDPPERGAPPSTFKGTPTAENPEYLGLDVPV
Experimental: Cells were treated with compounds, and cell viability was measured as a metric of kinase inhibition.
The Ba/F3 cell line is IL-3-dependent mouse cell line derived from the C3H mouse strain. Ba/F3 cell lines were engineered to express human ERBB2 or EGFR kinases, rendering the cells IL-3 independent. The lines were generated via retroviral transduction utilizing a Moloney murine leukemia virus (MMLV) promoter, and constructs are stably integrated into the cell genome. The sequences of the ERBB2 and EGFR genes used were NCBI Reference Sequences NM_004448.3 and NM_005228.3, respectively.
Similarly, Ba/F3 cell lines engineered to express EGFR, ERBB2, or ERBB2 mutants were grown, harvested, counted and seeded at 3000 cells per well in 96-well plates. A subset of wells contained media only (low control, “LC”).
Table B1 provides the growth media and number of cells seeded per well for the each cell line.
Plates were placed in a 37° C., 5% CO2 incubator for 72 hours. Plates were then removed from the incubator and equilibrated for 15 minutes at room temperature. 40 μl of CellTiter Glo reagent (Promega) was added to measure the relative level of metabolically active cells by quantifying intracellular ATP concentrations. Plates were incubated for 30 minutes at room temperature, and luminescence was measured. […] Graphical curves were fitted using a nonlinear regression model with a sigmoidal dose response.

[3] = target: T2, phosphorylated EGFR (pEGFR) (Homo sapiens, UniProt P00533); experiment: Detection of phosphorylated EGFR (pEGFR) in EGF-stimulated A431 cells; type: cell-based; conditions: A431 cells (10% FBS), 4 hours incubation, EGF 30 ng/mL 10 minutes, AlphaLISA
T2 construct: performed to measure phosphorylated EGFR levels using A431 cells (10% FBS); endogenous in cells; host or cells: A431
T2 sequence (P00533 25-1210): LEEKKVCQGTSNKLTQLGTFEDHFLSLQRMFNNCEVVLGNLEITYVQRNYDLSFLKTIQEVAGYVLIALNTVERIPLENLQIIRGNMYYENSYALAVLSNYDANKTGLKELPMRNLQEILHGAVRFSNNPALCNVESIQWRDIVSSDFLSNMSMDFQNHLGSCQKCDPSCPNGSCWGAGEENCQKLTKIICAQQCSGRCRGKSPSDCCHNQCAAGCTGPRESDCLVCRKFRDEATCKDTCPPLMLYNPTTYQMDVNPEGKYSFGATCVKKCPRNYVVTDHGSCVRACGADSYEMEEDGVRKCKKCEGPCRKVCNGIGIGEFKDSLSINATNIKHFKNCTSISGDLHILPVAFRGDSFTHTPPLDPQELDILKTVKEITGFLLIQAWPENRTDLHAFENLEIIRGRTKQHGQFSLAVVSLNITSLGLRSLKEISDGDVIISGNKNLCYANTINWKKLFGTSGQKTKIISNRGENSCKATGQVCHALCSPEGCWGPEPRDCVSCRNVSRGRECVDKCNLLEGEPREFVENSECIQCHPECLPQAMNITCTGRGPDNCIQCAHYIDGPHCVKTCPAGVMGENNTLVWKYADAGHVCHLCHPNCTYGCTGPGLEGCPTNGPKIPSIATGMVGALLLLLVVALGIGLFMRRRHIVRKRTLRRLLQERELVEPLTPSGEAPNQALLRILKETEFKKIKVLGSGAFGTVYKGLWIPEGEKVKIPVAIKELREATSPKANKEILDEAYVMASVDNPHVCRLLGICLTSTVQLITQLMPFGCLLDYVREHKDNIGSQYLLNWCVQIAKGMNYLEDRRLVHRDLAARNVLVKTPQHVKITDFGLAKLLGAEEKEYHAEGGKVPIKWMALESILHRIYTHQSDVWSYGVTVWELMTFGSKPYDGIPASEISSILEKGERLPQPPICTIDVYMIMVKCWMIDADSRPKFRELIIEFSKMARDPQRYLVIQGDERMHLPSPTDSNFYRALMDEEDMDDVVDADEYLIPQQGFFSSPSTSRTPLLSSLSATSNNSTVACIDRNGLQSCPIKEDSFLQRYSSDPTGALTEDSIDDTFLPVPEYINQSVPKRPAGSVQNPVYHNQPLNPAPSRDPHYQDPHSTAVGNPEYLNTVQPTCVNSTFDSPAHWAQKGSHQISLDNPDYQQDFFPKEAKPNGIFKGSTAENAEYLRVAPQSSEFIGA
Experimental: Enzyme-linked immunosorbent assays (ELISA) were performed to measure phosphorylated EGFR levels using A431 cells (10% FBS). A431 (1.0*10^4 cells/40 μl/well) cells were seeded in 384 well. Compounds were dissolved in DMSO, serially diluted in DMSO and then were added, mixed, and incubated for 4 hours at 37° C., 5% CO2. Following the 4-hours incubation, cells were stimulated for 10 minutes with EGF (Invitrogen, cat #PHG0311) at a final concentration of 30 ng/mL in the incubator. The media was aspirated and cells were lysed in 10 μL lysis buffer with protease and phosphatase inhibitors (PerkinElmer, cat #ALSU-PEGFR-A50K). The plates were placed on a shaker for 5 minutes and then incubated for 30 min at 4° C. for complete lysis. The lysate was transferred to an Optiplate (Perkin Elmer, cat #6007290).
Acceptor mix (PerkinElmer, cat #ALSU-PEGFR-A50K) was prepared just before use and 5 μL was dispensed to all the wells, followed by a 1.5-2 h incubation at room temperature in dark. The donor mix (PerkinElmer, cat #ALSU-PEGFR-A50K) was prepared under low light conditions prior to use and […] of donor mix was added to all the wells under subdued lighting or green filters. The plates were placed on a shaker for 5 min, sealed, and incubated overnight at room temperature in dark. Plates were read on the Envision (PerkinElmer) using standard AlphaLISA settings.
The percentage of inhibition on EGFR phosphorylation was calculated following equation: % Inhibition=100×(LumHC−LumSample)/(LumHC−LumLC). The low and high controls (LC/HC) are generated from lysate from wells with cells treated with DMSO or […] Staurosporine (BioAustralis, cat #BIA-S1086), […]. IC50 values were calculated by fitting the Curve using XLfit (v5.3.1.3), equation 201: Y=Bottom+(Top−Bottom)/(1+10^((Log IC50−X)*HillSlope)).

T1 sequence (P04626 23-1255): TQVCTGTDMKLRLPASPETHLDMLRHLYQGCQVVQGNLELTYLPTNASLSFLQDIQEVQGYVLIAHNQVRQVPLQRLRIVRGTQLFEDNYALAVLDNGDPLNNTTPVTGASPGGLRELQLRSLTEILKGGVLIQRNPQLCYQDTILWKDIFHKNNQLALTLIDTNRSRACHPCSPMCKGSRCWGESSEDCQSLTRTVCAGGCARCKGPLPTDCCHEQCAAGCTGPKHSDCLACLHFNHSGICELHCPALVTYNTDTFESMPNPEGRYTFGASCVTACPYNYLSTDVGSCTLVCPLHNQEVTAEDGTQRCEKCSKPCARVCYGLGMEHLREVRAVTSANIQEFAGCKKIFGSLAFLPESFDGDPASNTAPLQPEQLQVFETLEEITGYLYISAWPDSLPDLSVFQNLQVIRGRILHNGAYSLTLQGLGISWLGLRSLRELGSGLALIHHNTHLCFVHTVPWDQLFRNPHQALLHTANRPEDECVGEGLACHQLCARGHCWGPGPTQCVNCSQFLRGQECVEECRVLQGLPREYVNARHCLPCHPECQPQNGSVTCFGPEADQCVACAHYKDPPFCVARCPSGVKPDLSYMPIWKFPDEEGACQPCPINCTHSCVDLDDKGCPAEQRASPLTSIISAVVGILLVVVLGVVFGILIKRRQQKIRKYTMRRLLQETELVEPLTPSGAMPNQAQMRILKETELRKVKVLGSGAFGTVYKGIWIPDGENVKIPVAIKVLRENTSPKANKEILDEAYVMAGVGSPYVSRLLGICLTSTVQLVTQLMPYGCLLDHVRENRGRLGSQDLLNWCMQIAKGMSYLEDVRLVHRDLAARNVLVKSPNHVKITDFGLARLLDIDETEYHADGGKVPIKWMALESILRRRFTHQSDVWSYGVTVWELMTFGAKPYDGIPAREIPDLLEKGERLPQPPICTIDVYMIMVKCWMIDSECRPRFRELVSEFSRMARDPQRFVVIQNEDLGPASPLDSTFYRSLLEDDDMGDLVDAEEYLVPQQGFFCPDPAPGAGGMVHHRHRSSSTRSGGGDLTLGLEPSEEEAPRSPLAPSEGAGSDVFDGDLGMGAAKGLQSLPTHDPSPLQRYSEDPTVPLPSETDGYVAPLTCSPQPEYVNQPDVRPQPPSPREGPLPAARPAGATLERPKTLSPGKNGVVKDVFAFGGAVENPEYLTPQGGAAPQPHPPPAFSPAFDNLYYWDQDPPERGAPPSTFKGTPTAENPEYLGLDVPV

In the case of Cc1cc(Nc2ncnc3cnc(N4CC(C)C(=CCN(C)C)C4=O)cc23)ccc1Oc1ccc2c(c1)ncn2C (single isomer, unassigned) [Example S97, Enantiomer #1, 3-[2-(dimethylamino)ethylidene]-4-methyl-1-[4-({3-methyl-4-[(1-methyl-1,3-benzodiazol-5-yl)oxy]phenyl}amino)pyrido[3,4-d]pyrimidin-6-yl]pyrrolidin-2-one], the pIC50 [1] was 7.38, the GI50 [2] was 45.6 nM and the pIC50 [3] was under 5.00.

For Cc1cc(Nc2ncnc3cnc(N4CC(C)C(=CCN(C)C)C4=O)cc23)ccc1Oc1ccc2c(c1)ncn2C (single isomer, unassigned) [Example S97, Enantiomer #2, 3-[2-(dimethylamino)ethylidene]-4-methyl-1-[4-({3-methyl-4-[(1-methyl-1,3-benzodiazol-5-yl)oxy]phenyl}amino)pyrido[3,4-d]pyrimidin-6-yl]pyrrolidin-2-one], the pIC50 [1] was 7.68, the GI50 [2] was 4.12 nM and the pIC50 [3] was 6.31.

Molecule Cc1cc(Nc2ncnc3ccc(N4CC(C)C(=CCN(C)C)C4=O)nc23)ccc1Oc1ccn2ncnc2c1 (single isomer, unassigned) [Example S98, Enantiomer #1, 3-[2-(dimethylamino)ethylidene]-4-methyl-1-{4-[(3-methyl-4-{[1,2,4]triazolo[1,5-a]pyridin-7-yloxy}phenyl)amino]pyrido[3,2-d]pyrimidin-6-yl}pyrrolidin-2-one] has a pIC50 [1] of 7.92, a GI50 [2] of 1.13 nM and a pIC50 [3] of 6.80.

Molecule Cc1cc(Nc2ncnc3ccc(N4CC(C)C(=CCN(C)C)C4=O)nc23)ccc1Oc1ccn2ncnc2c1 (single isomer, unassigned) [Example S98, Enantiomer #2, 3-[2-(dimethylamino)ethylidene]-4-methyl-1-{4-[(3-methyl-4-{[1,2,4]triazolo[1,5-a]pyridin-7-yloxy}phenyl)amino]pyrido[3,2-d]pyrimidin-6-yl}pyrrolidin-2-one] has a pIC50 [1] of 7.58, a GI50 [2] of 71.2 nM and a pIC50 [3] of under 5.00.

Cc1cc(Nc2ncnc3ccc(N4C(=O)C(=CCN(C)C)C5CC54)nc23)ccc1Oc1ccn2ncnc2c1 (single isomer, unassigned) [Example S108, Enantiomer #1, 4-[2-(dimethylamino)ethylidene]-2-{4-[(3-methyl-4-{[1,2,4]triazolo[1,5-a]pyridin-7-yloxy}phenyl)amino]pyrido[3,2-d]pyrimidin-6-yl}-2-azabicyclo[3.1.0]hexan-3-one] gave a pIC50 [1] of 7.72, a GI50 [2] of 54 nM and a pIC50 [3] of 5.18.

Cc1cc(Nc2ncnc3ccc(N4C(=O)C(=CCN(C)C)C5CC54)nc23)ccc1Oc1ccn2ncnc2c1 (single isomer, unassigned) [Example S108, Enantiomer #2, 4-[2-(dimethylamino)ethylidene]-2-{4-[(3-methyl-4-{[1,2,4]triazolo[1,5-a]pyridin-7-yloxy}phenyl)amino]pyrido[3,2-d]pyrimidin-6-yl}-2-azabicyclo[3.1.0]hexan-3-one] was tested, and the pIC50 [1] was 7.90, the GI50 [2] was 4.88 nM and the pIC50 [3] was 6.76.

In the case of C=C1C(=O)N(c2ccc3ncnc(Nc4ccc(Oc5ccn6ncnc6c5)c(C)c4)c3c2)CC1COCCN(C)C (single isomer, unassigned) [Example S111, Enantiomer #1, 1-(4-(4-([1,2,4]triazolo[1,5-a]pyridin-7-yloxy)-3-methylphenylamino)quinazolin-6-yl)-4-((2-(dimethylamino)ethoxy)methyl)-3-methylenepyrrolidin-2-one], the pIC50 [1] was 7.78, the GI50 [2] was 18.4 nM and the pIC50 [3] was 6.56.

C=C1C(=O)N(c2ccc3ncnc(Nc4ccc(Oc5ccn6ncnc6c5)c(C)c4)c3c2)CC1COCCN(C)C (single isomer, unassigned) [Example S111, Enantiomer #2, 1-(4-(4-([1,2,4]triazolo[1,5-a]pyridin-7-yloxy)-3-methylphenylamino)quinazolin-6-yl)-4-((2-(dimethylamino)ethoxy)methyl)-3-methylenepyrrolidin-2-one] was tested, and the pIC50 [1] was 7.74, the GI50 [2] was 10.8 nM and the pIC50 [3] was 7.47.

Molecule Cc1cc(Nc2ncnc3cnc(N4CC(C)/C(=C\CN(C)C)C4=O)cc23)c(F)cc1Oc1ccc2c(c1)nnn2C (single isomer, unassigned) [Example S115, Enantiomer #1, (3E)-3-[2-(dimethylamino)ethylidene]-1-[4-({2-fluoro-5-methyl-4-[(1-methyl-1,2,3-benzotriazol-5-yl)oxy]phenyl}amino)pyrido[3,4-d]pyrimidin-6-yl]-4-methylpyrrolidin-2-one] has a pIC50 [1] of 7.49, a GI50 [2] of 11.3 nM and a pIC50 [3] of 6.00.

Work on Cc1cc(Nc2ncnc3cnc(N4CC(C)/C(=C\CN(C)C)C4=O)cc23)c(F)cc1Oc1ccc2c(c1)nnn2C (single isomer, unassigned) [Example S115, Enantiomer #2, (3E)-3-[2-(dimethylamino)ethylidene]-1-[4-({2-fluoro-5-methyl-4-[(1-methyl-1,2,3-benzotriazol-5-yl)oxy]phenyl}amino)pyrido[3,4-d]pyrimidin-6-yl]-4-methylpyrrolidin-2-one] yielded a pIC50 [1] of 6.56, a GI50 [2] of 286 nM and a pIC50 [3] of under 5.00.

Molecule CC1CN(c2cc3c(Nc4ccc(Oc5ccc6c(c5)nnn6C)c(F)c4)ncnc3cn2)C(=O)/C1=C/CN(C)C (single isomer, unassigned) [Example S117, Enantiomer #1, (E)-3-(2-(dimethylamino)ethylidene)-1-(4-((3-fluoro-4-((1-methyl-1H-benzo[d][1,2,3]triazol-5-yl)oxy)phenyl)amino)pyrido[3,4-d]pyrimidin-6-yl)-4-methylpyrrolidin-2-one] has a pIC50 [1] of 7.40, a GI50 [2] of 12 nM and a pIC50 [3] of 6.01.

In the case of CC1CN(c2cc3c(Nc4ccc(Oc5ccc6c(c5)nnn6C)c(F)c4)ncnc3cn2)C(=O)/C1=C/CN(C)C (single isomer, unassigned) [Example S117, Enantiomer #2, (E)-3-(2-(dimethylamino)ethylidene)-1-(4-((3-fluoro-4-((1-methyl-1H-benzo[d][1,2,3]triazol-5-yl)oxy)phenyl)amino)pyrido[3,4-d]pyrimidin-6-yl)-4-methylpyrrolidin-2-one], the pIC50 [1] was 6.23, the GI50 [2] was over 500 nM and the pIC50 [3] was under 5.00.

Source: patent US20240116921A1, “LACTAM (HETERO)[…] DERIVATIVES AS INHIBITORS OF ERBB2” (EnLiven Therapeutics, Inc., priority 2020, published 2024)
